Here are results for 24 compounds from patent publication US10774052B2, “Heteroaryl compounds and uses thereof” (Celgene CAR LLC, priority 2013, dated 2020).

For the first assay, the system named is pFGFR4 in MDA-MB-453 cells. Description: FGFR4 signaling, pFGFR4 (MDA); Western blot (Method A), MSD (Method B), ELISA (Method C). Type of assay: cell-based. The note with it: Homo sapiens; MDA-MB-453 cells; Method B (MSD) for signaling EC50 determination. (A western blot detects proteins with antibodies after separation by electrophoresis.)
The EC50 is the concentration at which the effect is half-maximal. `C=CC(=O)Nc1cc(-c2nnnn2C)ccc1Nc1ncc2c(n1)N(C)C(=O)N(c1c(Cl)c(OC)cc(OC)c1Cl)C2` [Compound I-153] registered a half-maximal effective concentration (EC50) below 100 nM.
Still for that read-out and setting: for `C=CC(=O)NC1CCCCC1Nc1ncc2c(n1)N(Cc1ccn(C)c(=O)c1)C(=O)N(c1c(Cl)c(OC)cc(OC)c1Cl)C2` (stereo not drawn) [Compound I-132] the value was 101 to 500 nM; for `C=CC(=O)NC1CCCCC1Nc1ncc2c(n1)N(CCOC)C(=O)N(c1c(Cl)c(OC)cc(OC)c1Cl)C2` (racemic) [Compound I-61], 101 to 500 nM; for `C=CC(=O)NC1CCCCC1Nc1ncc2c(n1)N(Cc1csc(C)n1)C(=O)N(c1c(Cl)c(OC)cc(OC)c1Cl)C2` (stereo not drawn) [Compound I-137], 101 to 500 nM.
Still for that read-out and setting: the value for `C=CC(=O)Nc1ccccc1Nc1ncc2c(n1)N(Cc1cccnc1)C(=O)N(c1cc(OC)cc(OC)c1)C2` [Compound I-44] was below 100 nM.
On the same count and under the same terms, for `C=CC(=O)N[C@H]1CCCC[C@H]1Nc1ncc2c(n1)N(C)C(=O)N(c1c(F)c(OC)cc(OC)c1F)C2` [Compound I-143] the value was 101 to 500 nM; for `C=CC(=O)Nc1ccccc1Nc1ncc2c(n1)N(CCF)C(=O)N(c1cc(OC)cc(OC)c1)C2` [Compound I-102], 101 to 500 nM.
Turning to `C=CC(=O)NC1CCCCC1Nc1ncc2c(n1)N(CC(F)F)C(=O)N(c1c(F)c(OC)cc(OC)c1F)C2` (stereo not drawn) [Compound I-115], the EC50 fell in the range of 101 to 500 nM.
Still for that read-out and setting: for `C=CC(=O)Nc1ccccc1Nc1ncc2c(n1)N(Cc1cn[nH]c1)C(=O)N(c1c(Cl)c(OC)cc(OC)c1Cl)C2` [Compound I-124] the value was below 100 nM; for `C=CC(=O)Nc1ccccc1Nc1ncc2cc(-c3cc(OC)cc(OC)c3)c(N)nc2n1` [Compound I-155], 101 to 500 nM; for `C=CC(=O)NC1CCCCC1Nc1ncc2c(n1)N(CC#N)C(=O)N(c1c(Cl)c(OC)cc(OC)c1Cl)C2` (racemic) [Compound I-47], 101 to 500 nM.
The same measure, in the same setting: the value for `C=CC(=O)Nc1ccc(C(F)(F)F)cc1Nc1ncc2c(n1)N(C)C(=O)N(c1cc(OC)cc(OC)c1)C2` [Compound I-50] was 101 to 500 nM; that for `C=CC(=O)Nc1ccccc1Nc1ncc2c(n1)N(Cc1cccc(N)c1)C(=O)N(c1c(Cl)c(OC)cc(OC)c1Cl)C2` [Compound I-26] was below 100 nM; that for `C=CC(=O)Nc1ccccc1Nc1ncc2c(n1)N(CC(F)F)C(=O)N(c1c(F)c(OC)cc(OC)c1F)C2` [Compound I-116] was below 100 nM.
For `C=CC(=O)N[C@H]1COCC[C@H]1Nc1ncc2c(n1)N(C)C(=O)N(c1c(Cl)c(OC)cc(OC)c1Cl)C2` [Compound I-140], the EC50 was 101 to 500 nM.
Still for that read-out and setting: the value for `C=CC(=O)Nc1nn(C)cc1Nc1ncc2c(n1)N(C)C(=O)N(c1c(Cl)c(OC)cc(OC)c1Cl)C2` [Compound I-117] was below 100 nM; that for `C=CC(=O)Nc1ccccc1Nc1ncc2c(n1)N(Cc1ccc(F)cc1)C(=O)N(c1c(Cl)c(OC)cc(OC)c1Cl)C2` [Compound I-25] was below 100 nM; that for `C=CC(=O)NC1CCCCC1Nc1ncc2c(n1)N(Cc1ccccc1)C(=O)N(c1c(Cl)c(OC)cc(OC)c1Cl)C2` (racemic) [Compound I-63] was 101 to 500 nM.
On the same count and under the same terms, the value for `C=CC(=O)Nc1cc(C(=O)NC2CCN(C)CC2)ccc1Nc1ncc2c(n1)N(C)C(=O)N(c1cc(OC)cc(OC)c1)C2` [Compound I-151] was 501 to 999 nM; that for `C=CC(=O)Nc1cc(C(F)(F)F)ccc1Nc1ncc2c(n1)N(C)C(=O)N(c1cc(OC)cc(OC)c1)C2` [Compound I-42] was 101 to 500 nM; that for `C=CC(=O)Nc1ccccc1Nc1ncc2c(n1)N(Cc1cn[nH]c1)C(=O)N(c1cc(OC)cc(OC)c1)C2` [Compound I-121] was below 100 nM.
Same read-out and setting: for `C=CC(=O)Nc1cc(N2CCN(CCOC)CC2)ccc1Nc1ncc2c(n1)N(Cc1cccc(NC(=O)CC)c1)C(=O)N(c1cc(OC)cc(OC)c1)C2` [Compound I-9] the value was below 100 nM; for `C=CC(=O)Nc1ccccc1Nc1ncc2c(n1)N(C1CCCNC1)C(=O)N(c1cc(OC)cc(OC)c1)C2` (stereo not drawn) [Compound I-43], 501 to 999 nM; for `C=CC(=O)Nc1ccccc1Nc1ncc2c(n1)N(CCF)C(=O)N(c1cc(OC)cc(OC)c1Cl)C2` [Compound I-110], below 100 nM.

Another assay relates to pFGFR4 in Huh7 cells. Description: FGFR4 signaling, pFGFR4 (Huh); MSD (Method B). In kind it is cell-based. To be noted: Homo sapiens, Huh-7; Huh7 cells; read-out: Signaling EC50 (nM) pFGFR4 (Huh).
Take `C=CC(=O)Nc1cc(-c2nnnn2C)ccc1Nc1ncc2c(n1)N(C)C(=O)N(c1c(Cl)c(OC)cc(OC)c1Cl)C2` [Compound I-153]: the EC50 is below 100 nM.
On the same count and under the same terms, for `C=CC(=O)NC1CCCCC1Nc1ncc2c(n1)N(Cc1ccn(C)c(=O)c1)C(=O)N(c1c(Cl)c(OC)cc(OC)c1Cl)C2` (stereo not drawn) [Compound I-132] the value was 101 to 500 nM.
Same read-out and setting: the value for `C=CC(=O)NC1CCCCC1Nc1ncc2c(n1)N(CCOC)C(=O)N(c1c(Cl)c(OC)cc(OC)c1Cl)C2` (racemic) [Compound I-61] was 101 to 500 nM; that for `C=CC(=O)NC1CCCCC1Nc1ncc2c(n1)N(Cc1csc(C)n1)C(=O)N(c1c(Cl)c(OC)cc(OC)c1Cl)C2` (stereo not drawn) [Compound I-137] was 101 to 500 nM; that for `C=CC(=O)Nc1ccccc1Nc1ncc2c(n1)N(Cc1cccnc1)C(=O)N(c1cc(OC)cc(OC)c1)C2` [Compound I-44] was below 100 nM.
For the compound `C=CC(=O)N[C@H]1CCCC[C@H]1Nc1ncc2c(n1)N(C)C(=O)N(c1c(F)c(OC)cc(OC)c1F)C2` [Compound I-143], the EC50 lay within 101 to 500 nM.
On to `C=CC(=O)Nc1ccccc1Nc1ncc2c(n1)N(CCF)C(=O)N(c1cc(OC)cc(OC)c1)C2` [Compound I-102], for which the EC50 is below 100 nM.
As to `C=CC(=O)NC1CCCCC1Nc1ncc2c(n1)N(CC(F)F)C(=O)N(c1c(F)c(OC)cc(OC)c1F)C2` (stereo not drawn) [Compound I-115], the EC50 fell in the range of 101 to 500 nM.
Same read-out and setting: the value for `C=CC(=O)Nc1ccccc1Nc1ncc2c(n1)N(Cc1cn[nH]c1)C(=O)N(c1c(Cl)c(OC)cc(OC)c1Cl)C2` [Compound I-124] was below 100 nM; that for `C=CC(=O)Nc1ccccc1Nc1ncc2cc(-c3cc(OC)cc(OC)c3)c(N)nc2n1` [Compound I-155] was above 1000 nM; that for `C=CC(=O)NC1CCCCC1Nc1ncc2c(n1)N(CC#N)C(=O)N(c1c(Cl)c(OC)cc(OC)c1Cl)C2` (racemic) [Compound I-47] was 501 to 999 nM.
On the same count and under the same terms, the value for `C=CC(=O)Nc1ccc(C(F)(F)F)cc1Nc1ncc2c(n1)N(C)C(=O)N(c1cc(OC)cc(OC)c1)C2` [Compound I-50] was 101 to 500 nM; that for `C=CC(=O)Nc1ccccc1Nc1ncc2c(n1)N(Cc1cccc(N)c1)C(=O)N(c1c(Cl)c(OC)cc(OC)c1Cl)C2` [Compound I-26] was below 100 nM; that for `C=CC(=O)Nc1ccccc1Nc1ncc2c(n1)N(CC(F)F)C(=O)N(c1c(F)c(OC)cc(OC)c1F)C2` [Compound I-116] was below 100 nM.
In the case of `C=CC(=O)N[C@H]1COCC[C@H]1Nc1ncc2c(n1)N(C)C(=O)N(c1c(Cl)c(OC)cc(OC)c1Cl)C2` [Compound I-140], the EC50 was 101 to 500 nM.
Still for that read-out and setting: for `C=CC(=O)Nc1nn(C)cc1Nc1ncc2c(n1)N(C)C(=O)N(c1c(Cl)c(OC)cc(OC)c1Cl)C2` [Compound I-117] the value was below 100 nM; for `C=CC(=O)Nc1ccccc1Nc1ncc2c(n1)N(Cc1ccc(F)cc1)C(=O)N(c1c(Cl)c(OC)cc(OC)c1Cl)C2` [Compound I-25], 101 to 500 nM; for `C=CC(=O)NC1CCCCC1Nc1ncc2c(n1)N(Cc1ccccc1)C(=O)N(c1c(Cl)c(OC)cc(OC)c1Cl)C2` (racemic) [Compound I-63], below 100 nM.
Take `C=CC(=O)Nc1cc(C(=O)NC2CCN(C)CC2)ccc1Nc1ncc2c(n1)N(C)C(=O)N(c1cc(OC)cc(OC)c1)C2` [Compound I-151]: the EC50 was above 1000 nM.
On the same count and under the same terms, for `C=CC(=O)Nc1cc(C(F)(F)F)ccc1Nc1ncc2c(n1)N(C)C(=O)N(c1cc(OC)cc(OC)c1)C2` [Compound I-42] the value was below 100 nM.
Same read-out and setting: for `C=CC(=O)Nc1ccccc1Nc1ncc2c(n1)N(Cc1cn[nH]c1)C(=O)N(c1cc(OC)cc(OC)c1)C2` [Compound I-121] the value was below 100 nM; for `C=CC(=O)Nc1cc(N2CCN(CCOC)CC2)ccc1Nc1ncc2c(n1)N(Cc1cccc(NC(=O)CC)c1)C(=O)N(c1cc(OC)cc(OC)c1)C2` [Compound I-9], 101 to 500 nM.
Still for that read-out and setting: for `C=CC(=O)Nc1ccccc1Nc1ncc2c(n1)N(C1CCCNC1)C(=O)N(c1cc(OC)cc(OC)c1)C2` (stereo not drawn) [Compound I-43] the value was above 1000 nM.
Turning to `C=CC(=O)Nc1ccccc1Nc1ncc2c(n1)N(CCF)C(=O)N(c1cc(OC)cc(OC)c1Cl)C2` [Compound I-110], the concentration giving a half-maximal response (EC50) was below 100 nM.
